Where two headings read alike, the source gives them in different places.
What was measured:
[1] = system: HIV-1 wild-type (WT) strain (IIIB); experiment: Anti-HIV activity in MT-4 cells (MTT method), HIV-1 IIIB; type: cell-based; conditions: for EC50: Human immunodeficiency virus 1, IIIB, MT4, read-out: EC50 IIIB; for SI IIIB: selectivity index, ratio CC50/EC50, IIIB
Experimental: (§1) All the target compounds were first evaluated for their antiviral activity against HIV-1 wild-type (WT) strain (IIIB) and the double-mutant strain K103N+Y181C (RES056) in the MT-4 cell line, using the MTT method.
(§2) The antiviral potential and cytotoxic effects of the target compounds were assessed using the MTT assay in MT-4 cells, following established protocols. The HIV-1 (IIIB) strain, single mutant strains (L100I, K103N, Y181C, Y188L and E138K), double mutant strains (F227L + V106A and K103N + Y181C) and MT-4 cells were provided by the Rega Institute of Medicine at the University of Leuven, Belgium. These viral strains were propagated in MT-4 cells. […] The specific experimental procedures are detailed below.
(§3) Initially, concentrated solutions of the test compounds were prepared at 10-fold the final desired concentration and added to triplicate wells in 25 µL aliquots to assess their impacts on both mock and HIV-infected MT-4 cells. Using a Biomek 3000 robot, these were diluted in a 96-well flat-bottomed microplate by mixing with medium, creating a series of 5-fold steps down in concentration. Each test included control groups of untreated infected and mock-infected cells to establish baselines for comparison. […] These strains served to mimic both typical and resistant infections. Additionally, mock-infected wells received an equal volume of culture medium to assess the compounds’ impacts on uninfected cells, thereby determining cytotoxicity. MT-4 cells in the exponential growth phase were pelleted by centrifugation at 1000 rpm for 5 min, after which the supernatant was removed. The cells were resuspended to a density of 6 × 10^5 cells/mL, and 50 µL of this suspension was added to each well. Post-infection, on the fifth day, cell viability in both mock and infected conditions was measured via the MTT assay using a spectrophotometer.

[2] = system: HIV-1 double-mutant strain K103N+Y181C (RES056); experiment: microbe, parasite or virus in culture; type: cell-based; conditions: for EC50: Human immunodeficiency virus 1, MT4, read-out: EC50 RES056; for SI RES056: selectivity index, ratio CC50/EC50, RES056
Experimental: as §1, §2, §3

[3] = Cytotoxicity in mock-infected MT-4 cells (MTT method); type: cell-based; conditions: human, CC50
Experimental: (§4) The antiviral potential and cytotoxic effects of the target compounds were assessed using the MTT assay in MT-4 cells, following established protocols. The HIV-1 (IIIB) strain, single mutant strains (L100I, K103N, Y181C, Y188L and E138K), double mutant strains (F227L + V106A and K103N + Y181C) and MT-4 cells were provided by the Rega Institute of Medicine at the University of Leuven, Belgium. These viral strains were propagated in MT-4 cells. The MT-4 cells were cultured in RPMI-1640 medium supplemented with 20 mM HEPES buffer (Life Technologies, Grand Island, NY, USA), 10% (v/v) heat-inactivated fetal calf serum (FCS), 2 mM L-glutamine, 0.1% sodium bicarbonate, and 20 μg/mL gentamicin. Cultures were maintained at 37 °C in a 5% CO2 atmosphere. The specific experimental procedures are detailed below.
(§5) Initially, concentrated solutions of the test compounds were prepared at 10-fold the final desired concentration and added to triplicate wells in 25 µL aliquots to assess their impacts on both mock and HIV-infected MT-4 cells. Using a Biomek 3000 robot, these were diluted in a 96-well flat-bottomed microplate by mixing with medium, creating a series of 5-fold steps down in concentration. Each test included control groups of untreated infected and mock-infected cells to establish baselines for comparison. We introduced HIV-1 strains, both wild-type (IIIB) and drug-resistant variants harboring mutations L100I, K103N, Y181C, Y188L, E138K and F227L + V106A and the double mutant K103N + Y181C (RES056), at concentrations of 100–300 CCID50, into their respective wells. These strains served to mimic both typical and resistant infections. Additionally, mock-infected wells received an equal volume of culture medium to assess the compounds’ impacts on uninfected cells, thereby determining cytotoxicity. MT-4 cells in the exponential growth phase were pelleted by centrifugation at 1000 rpm for 5 min, after which the supernatant was removed. The cells were resuspended to a density of 6 × 10^5 cells/mL, and 50 µL of this suspension was added to each well. Post-infection, on the fifth day, cell viability in both mock and infected conditions was measured via the MTT assay using a spectrophotometer. The CC50 was identified as the concentration of the compound that caused a 50% reduction in the viability of the mock-infected cells, indicating cytotoxicity. Conversely, the EC50 represented the concentration that provided 50% protection against viral cytopathic effects in infected cells, signifying antiviral potency.

[4] = system: HIV-1 L100I mutant strain; experiment: Anti-HIV activity in MT-4 cells (MTT method), L100I; type: cell-based; conditions: Human immunodeficiency virus 1, MT4, read-out: EC50 L100I
Text: (§6) All the target compounds were first evaluated for their antiviral activity against HIV-1 wild-type (WT) strain (IIIB) and the double-mutant strain K103N+Y181C (RES056) in the MT-4 cell line, using the MTT method. The potent inhibitors were selected to assess their efficacy against other strains resistant to NNRTIs, including L100I, K103N, Y181C, Y188L, E138K and the double-mutant strain F227L+V106A. The approved drugs NVP, EFV and ETR were selected as reference drugs. The biological evaluation results of the test compounds, presented as EC50 (anti-HIV potency), CC50 (cytotoxicity) and SI (selectivity index, CC50/EC50 ratio), are summarized in Table 1 and Table 2.
as §4, §5

[5] = system: HIV-1 K103N mutant strain; experiment: Anti-HIV activity in MT-4 cells (MTT method), K103N; type: cell-based; conditions: Human immunodeficiency virus 1, MT4, read-out: EC50 K103N
Text: as §6, §4, §5

[6] = system: HIV-1 Y181C mutant strain; experiment: Anti-HIV activity in MT-4 cells (MTT method), Y181C; type: cell-based; conditions: Human immunodeficiency virus 1, MT4, read-out: EC50 Y181C
Text: as §6, §4, §5

[7] = system: HIV-1 Y188L mutant strain; experiment: Anti-HIV activity in MT-4 cells (MTT method), Y188L; type: cell-based; conditions: Human immunodeficiency virus 1, MT4, read-out: EC50 Y188L
Text: as §6, §4, §5

[8] = system: HIV-1 E138K mutant strain; experiment: Anti-HIV activity in MT-4 cells (MTT method), E138K; type: cell-based; conditions: for EC50: Human immunodeficiency virus 1, MT4, read-out: EC50 E138K
Text: as §6, §4, §5

[9] = system: HIV-1 double-mutant strain F227L+V106A; experiment: Anti-HIV activity in MT-4 cells (MTT method), F227L+V106A; type: cell-based; conditions: Human immunodeficiency virus 1, MT4, read-out: EC50 F227L/V106A
Text: as §6, §4, §5

WT HIV-1 RT = molecular target: T1, WT HIV-1 RT (Human immunodeficiency virus type 1 group M subtype B, UniProt P03366); experiment: HIV-1 RT inhibition assay (Roche kit, ELISA); type: biochemical
T1 construct: viral nucleotides (dNTPs) and the HIV-1 RT enzyme in an incubation buffer; purchased Roche
Text: An assay kit for HIV-1 reverse transcriptase (RT) from Roche was utilized to assess RT inhibition. The kit provided all necessary components for the RT reaction, and the enzyme-linked immunosorbent assay (ELISA) methodology for the inhibition assay was executed according to the kit’s instructions. […] Unbound dNTPs were washed away, and an anti-[…] (DIG)-POD working solution was introduced. […] Excess anti-DIG-POD was removed, and a peroxidase substrate (ABTS) solution was applied to the MTPs. […] The percentage of the inhibitory activity of the RT inhibitors was calculated by formula, as given below:
% Inhibition = [O.D. value with RT but without inhibitors − O.D. value with RT and inhibitors]/[O.D. value with RT […] − O.D. value without RT and inhibitors].

MT-4 cells = experiment: Cytotoxicity in mock-infected MT-4 cells (MTT method); type: cell-based; conditions: human, 5 days
Experimental: as §4, §5

[10] = system: HIV-1 wild-type (WT) and a panel of NNRTI-resistant strains; experiment: Anti-HIV activity in MT-4 cells (MTT method), WT and panel of NNRTI-resistant strains; type: cell-based
Text: as §6
The antiviral potential and cytotoxic effects of the target compounds were assessed using the MTT assay in MT-4 cells, following established protocols. […]
Initially, concentrated solutions of the test compounds were prepared at 10-fold the final desired concentration and added to triplicate wells in 25 µL aliquots to assess their impacts on both mock and HIV-infected MT-4 cells. […] Post-infection, on the fifth day, cell viability in both mock and infected conditions was measured via the MTT assay using a spectrophotometer. […]

SMILES	EC50 [1]	SI IIIB [1]	EC50 [2]	SI RES056 [2]	CC50 at 5 days [3]	EC50 [4]	EC50 [5]	EC50 [6]	EC50 [7]	EC50 [8]	EC50 [9]	IC50 (WT HIV-1 RT)	melting point	CC50 (MT-4 cells)	fold superior to NVP, E138K ([8]; ratio of EC50 values against E138K, versus NVP)	EC50 ([10]; Human immunodeficiency virus 1, MT4, read-out: EC50 values against HIV-1 WT and a panel of NNRTI-resistant strains, range over strains, MT-4 cells)	EC50 ([10]; read-out: EC50 values against HIV-1 WT and a panel of NNRTI-resistant strains, range over strains, MT-4 cells)
Cc1cc(C#N)cc(C)c1Oc1nc(Nc2ccc(NC(=O)[C@@H](N)Cc3c[nH]cn3)cc2)nc2ccsc12 [5e]	0.052 ± 0.022 µM	484	≥ 4.88 µM	≤5	25.1 ± 2.3 µM	0.902 ± 0.311 µM	0.035 ± 0.009 µM	2.58 ± 0.477 µM	2.26 ± 0.733 µM	0.26 ± 0.075 µM	1.47 ± 0.979 µM	0.927 ± 0.064 µM	158 to 160 °C				
Cc1cc(C#N)cc(C)c1Oc1nc(Nc2ccc(NC(=O)[C@@H](N)Cc3ccccc3)cc2)nc2ccsc12 [5h]	0.055 ± 0.012 µM	429	8.47 ± 0.483 µM	3	23.7 ± 0.521 µM	1.83 ± 0.208 µM	0.073 ± 0.016 µM	2.72 ± 0.422 µM	2.39 ± 0.352 µM	0.679 ± 0.569 µM	2.11 ± 0.293 µM	1.54 ± 0.119 µM	203 to 206 °C				
Cc1cc(C#N)cc(C)c1Oc1nc(Nc2ccc(NC(=O)C3CCCN3)cc2)nc2ccsc12 (centres unmarked) [5k]	0.054 ± 0.018 µM	513	7.53 ± 0.28 µM	4	27.9 µM	0.601 ± 0.261 µM	0.031 ± 0.004 µM	1.85 ± 0.621 µM	2.35 ± 0.057 µM	0.094 ± 0.022 µM	1.76 ± 0.686 µM	1.12 ± 0.074 µM	227 to 230 °C	27.9 ± 0.91 µM	~1.9 fold	0.042 to 7.53 µM	0.031 to 2.35 µM
Cc1cc(C#N)cc(C)c1Oc1nc(Nc2ccc(NC(=O)[C@@H](N)C(C)C)cc2)nc2ccsc12 [5i]	0.042 ± 0.008 µM	157	≥ 6.62 µM	≤1	6.54 ± 1.34 µM	1.2 ± 0.218 µM	0.045 ± 0.01 µM	> 6.54 µM	6.91 ± 0.944 µM	0.247 ± 0.107 µM	3.03 ± 1.76 µM	1.35 ± 0.148 µM	184 to 187 °C				
Cc1cc(C#N)cc(C)c1Oc1nc(Nc2ccc(NC(=O)[C@H](N)CC(C)C)cc2)nc2ccsc12 [5n]	0.062 ± 0.019 µM	391	5.5 ± 1.36 µM	4	24.3 ± 4.28 µM	2.12 ± 0.455 µM	0.131 ± 0.004 µM	2.16 ± 0.057 µM	2.11 ± 0.288 µM	0.231 ± 0.154 µM	2.03 ± 1.18 µM	2.39 ± 0.086 µM					

— article PMC11354745, “Discovery of Novel Amino Acids (Analogues)-Substituted Thiophene[3,2-d]pyrimidine Derivatives as Potent HIV-1 Non-Nucleoside Reverse Transcriptase Inhibitors: Design, Synthesis, and Biological Evaluation” (International Journal of Molecular Sciences, 2024)
